# Assay results published in ChEMBL document CHEMBL1201862, “PubChem BioAssay data set” (2004).
# The source made the active and inactive calls.
# Legend:
# [1] = Glucagon-like peptide 1 release potency, NCI-H716 cell line, dose-response, half-maximal inhibitory concentration (AID 1117344); format: functional, cell-based
# [2] = half-maximal inhibitory concentration for glucagon-like peptide-1 release, STC-1 cell line, dose-response (AID 1117345); format: functional, cell-based
# [3] = target: Mitogen-activated protein kinase 10 (Homo sapiens, UniProt P53779); experiment: Dose response biochemical screening assay for inhibitors of c-Jun N-Terminal Kinase 3 (JNK3). [Related pubchem assays: 746 ]
# [4] = growth inhibition of intracellular T. cruzi, dose response, cell-based, plate reader, dry powder samples (AID 651845); format: functional
# [5] = T. cruzi intracellular amastigote growth inhibition, dose response, imaging, CA-I/72 strain, bovine embryo skeletal muscle, dry powder (AID 651885); format: functional, cell-based
# [6] = T. cruzi growth inhibition in host cells, dose response, cell-based, plate reader, dry powder, set 2 (AID 652275); format: functional
# [7] = Artemis endonuclease inhibitor potency, dose response, biochemical, fluorescence intensity (AID 720701); format: functional;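 note: Artemis endonuclease enzyme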
# [8] = Late stage results for the probe development effort to identify inhibitors of Plasmodium falciparum gametocytes: Luminescence-based cell-based high throughput dose response assay to identify inhibitors of viability of late stage Plasmodium falciparum gametocytes.; format: functional
# [9] = NIH:OVCAR-3 ovarian cancer cell cytotoxicity, dose response, PAX8 inhibitor project, plate reader, dry powder samples (AID 743044); format: functional, cell-based
# [10] = cytotoxicity toward DRD oncogenic fibroblasts, dose response, cell-based, non-viral oncogenic, luminescence (AID 1934); format: functional; conditions: Homo sapiens
# [11] = system: BJ; experiment: cytotoxicity toward BJ-TERT-LT-ST fibroblasts, dose response, cell-based, RAS-independent, luminescence (AID 1935); format: functional; conditions: Homo sapiens;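 note: BJ fibroblasts immortalized with TERT plus LT and ST oncogenes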
# [12] = cytotoxicity dependent on PAX8, dose response, cell-based, plate reader, dry powder (AID 743049); format: functional
# [13] = PAX2 cell-based inhibition, dose response, selectivity assay for PAX8 inhibitor project, plate reader, dry powder samples (AID 743048); format: functional;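 note: HEK293 cells carrying a WT1 promoter luciferase reporter driven by expressed Pax2; potency is for inhibition of Pax2 driven reporter signal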
# [14] = system: BJ; experiment: cells; format: functional, cell-based; conditions: Homo sapiens
# [15] = cytotoxicity in OVCAR4 cells, dose response, cytotoxicity control for PAX8 inhibitor project, cell-based, plate reader, dry powder, SA11 (AID 743150); format: functional; conditions: OVCAR-4
# [16] = system: BJ; experiment: cytotoxicity toward BJ-TERT fibroblasts, dose response, cell-based, RAS-independent, luminescence (AID 1933); format: functional; conditions: Homo sapiens
# [17] = A2780 ovarian cancer cell cytotoxicity, dose response, cytotoxicity control, plate reader, dry powder samples (AID 743046); format: functional, cell-based
# [18] = cytotoxicity in OV-90 ovarian cancer cells, dose response, PAX8 inhibitor project, cell-based, plate reader, dry powder, SA8 (AID 743149); format: functional
# [19] = target: Paired box protein Pax-8 (Homo sapiens, UniProt Q06710); experiment: inhibitors of PAX8-driven TPO luciferase reporter, dose response, RMG-I cells, cherry-pick (AID 687027); format: functional, cell-based;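 note: luciferase reporter driven by Pax8 target thyroperoxidase promoter measured by SteadyGlo luminescence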
# [20] = IOSE-T80 ovarian epithelial cell cytotoxicity, dose response, cytotoxicity control for PAX8 inhibitor project, plate reader, dry powder samples (AID 743045); format: functional, cell-based
# [21] = PAX5 activity inhibitors, dose response, selectivity assay for PAX8 inhibitor project, cell-based, plate reader, dry powder samples (AID 743047); format: functional;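 note: HEK293 cells carrying a Pax5 driven CD19 promoter luciferase reporter; potency of inhibitors that lower reporter luminescence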
# [22] = IGROV1 ovarian cancer cell cytotoxicity, dose response, PAX8 inhibitor project, plate reader, dry powder samples (AID 743043); format: functional, cell-based; conditions: IGROV-1
# [23] = cytotoxicity in HEK-293T cells, dose response, cytotoxicity control for TCR NF-kB inhibitor project, luminescence, T-cell screen hits (AID 489026); format: functional, cell-based;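 note: cells exposed to compound about 14 hours before the viability readout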
# [24] = cytotoxicity in COV434 cells, dose response, cytotoxicity control for PAX8 inhibitor project, cell-based, plate reader, dry powder, SA7 (AID 743145); format: functional
# [25] = THP-1 cell cytotoxicity, dose response, cytotoxicity control for Vif-APOBEC3G degradation inhibitor project, THP-1 cells (AID 1117359); format: functional; conditions: Human immunodeficiency virus 1, THP-1
# [26] = target: T1, Protein RecA (Mycobacterium tuberculosis, UniProt P9WHJ3); experiment: Fluorescence Cell-Free Homogeneous Dose Retest to Identify Inhibitors of RecA-Intein Splicing Activity. [Related pubchem assays (depositor defined):AID2097, AID2223, AID489010, AID492950]; format: functional
# T1 sequence (P9WHJ3 whole entry): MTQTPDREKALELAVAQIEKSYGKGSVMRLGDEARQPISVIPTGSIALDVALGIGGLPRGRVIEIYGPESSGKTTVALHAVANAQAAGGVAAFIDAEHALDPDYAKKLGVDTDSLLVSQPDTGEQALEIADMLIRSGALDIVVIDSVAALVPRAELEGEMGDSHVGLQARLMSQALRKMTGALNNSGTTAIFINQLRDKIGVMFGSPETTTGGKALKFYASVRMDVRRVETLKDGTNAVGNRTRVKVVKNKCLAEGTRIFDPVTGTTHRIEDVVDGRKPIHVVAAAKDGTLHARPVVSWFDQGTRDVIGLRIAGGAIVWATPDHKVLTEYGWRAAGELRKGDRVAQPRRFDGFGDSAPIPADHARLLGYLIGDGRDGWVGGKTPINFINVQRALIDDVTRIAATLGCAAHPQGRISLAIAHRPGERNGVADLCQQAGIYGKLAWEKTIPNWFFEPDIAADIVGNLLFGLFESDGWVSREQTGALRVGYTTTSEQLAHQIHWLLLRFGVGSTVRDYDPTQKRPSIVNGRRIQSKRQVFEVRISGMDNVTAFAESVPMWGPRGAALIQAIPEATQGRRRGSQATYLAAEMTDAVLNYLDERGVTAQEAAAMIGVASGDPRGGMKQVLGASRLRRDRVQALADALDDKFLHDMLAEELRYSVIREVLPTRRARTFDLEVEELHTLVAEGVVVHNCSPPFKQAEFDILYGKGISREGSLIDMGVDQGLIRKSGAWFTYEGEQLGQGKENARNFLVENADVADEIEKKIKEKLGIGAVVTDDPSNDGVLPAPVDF
# [27] = target: T2, Replicative DNA helicase DnaB (Mycobacterium tuberculosis, UniProt P9WMR3); experiment: DnaB intein splicing inhibitors, dose response, biochemical, cell-free fluorescence (AID 449749); format: functional
# T2 sequence (P9WMR3 whole entry): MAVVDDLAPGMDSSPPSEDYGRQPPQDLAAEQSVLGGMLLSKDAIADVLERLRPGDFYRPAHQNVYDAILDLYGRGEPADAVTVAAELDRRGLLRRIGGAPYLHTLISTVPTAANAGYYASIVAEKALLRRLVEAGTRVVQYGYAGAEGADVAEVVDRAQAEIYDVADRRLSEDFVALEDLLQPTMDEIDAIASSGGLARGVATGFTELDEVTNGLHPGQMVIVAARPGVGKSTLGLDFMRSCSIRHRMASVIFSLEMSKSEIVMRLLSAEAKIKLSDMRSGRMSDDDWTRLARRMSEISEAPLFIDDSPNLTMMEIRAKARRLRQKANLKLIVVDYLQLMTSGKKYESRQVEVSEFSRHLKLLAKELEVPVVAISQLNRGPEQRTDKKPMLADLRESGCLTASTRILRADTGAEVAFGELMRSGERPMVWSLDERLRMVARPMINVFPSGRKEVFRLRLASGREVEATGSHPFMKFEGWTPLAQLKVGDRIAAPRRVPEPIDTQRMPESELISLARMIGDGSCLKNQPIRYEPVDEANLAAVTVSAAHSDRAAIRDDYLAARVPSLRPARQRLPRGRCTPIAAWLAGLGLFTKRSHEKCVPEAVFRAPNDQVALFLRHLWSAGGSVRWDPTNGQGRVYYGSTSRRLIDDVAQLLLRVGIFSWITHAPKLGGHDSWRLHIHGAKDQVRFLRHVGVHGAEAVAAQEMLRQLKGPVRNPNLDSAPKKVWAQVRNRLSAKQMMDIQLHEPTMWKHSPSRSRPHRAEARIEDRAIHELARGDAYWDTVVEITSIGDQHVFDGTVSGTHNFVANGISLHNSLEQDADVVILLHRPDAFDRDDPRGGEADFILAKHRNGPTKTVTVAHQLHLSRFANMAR
# [28] = target: Protein Tat (Human immunodeficiency virus type 1 group M subtype B (isolate HXB2)(HIV-1), UniProt P04608); format: functional;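 note: tat binding to TAR RNA read out by fluorescence polarization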
# [29] = target: Induced myeloid leukemia cell differentiation protein Mcl-1 (Homo sapiens, UniProt Q07820); format: functional
# [30] = target: Glutathione-S-transferase (Schistosoma japonicum, UniProt Q26513); experiment: biotin-GST/anti-GST TR-FRET signal inhibitors, dose response, artefact control for Vif-APOBEC3G degradation inhibitor project, biochemical (AID 1117362); format: functional
# Chain of Glutathione-S-transferase (Q26513 whole entry): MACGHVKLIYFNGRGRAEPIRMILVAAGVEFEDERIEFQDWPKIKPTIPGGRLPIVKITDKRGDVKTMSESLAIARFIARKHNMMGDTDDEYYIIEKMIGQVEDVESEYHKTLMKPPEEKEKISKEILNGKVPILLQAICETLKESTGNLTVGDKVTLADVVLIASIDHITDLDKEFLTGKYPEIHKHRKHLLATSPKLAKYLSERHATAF
# Chain of Induced myeloid leukemia cell differentiation protein Mcl-1 (Q07820 whole entry): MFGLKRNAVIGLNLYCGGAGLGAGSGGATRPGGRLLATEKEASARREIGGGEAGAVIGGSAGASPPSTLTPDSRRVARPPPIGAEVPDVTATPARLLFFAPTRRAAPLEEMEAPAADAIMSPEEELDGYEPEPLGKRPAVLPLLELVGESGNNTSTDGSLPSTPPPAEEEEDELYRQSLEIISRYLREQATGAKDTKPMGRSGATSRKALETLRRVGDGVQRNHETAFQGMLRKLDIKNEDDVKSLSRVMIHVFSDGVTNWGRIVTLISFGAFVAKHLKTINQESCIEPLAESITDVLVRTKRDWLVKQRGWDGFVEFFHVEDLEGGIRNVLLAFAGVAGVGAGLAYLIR
# Chain of Protein Tat (P04608 whole entry): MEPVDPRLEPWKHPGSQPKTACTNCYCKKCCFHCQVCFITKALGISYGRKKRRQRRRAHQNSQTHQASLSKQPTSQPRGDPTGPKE
# Chain of Mitogen-activated protein kinase 10 (P53779 whole entry): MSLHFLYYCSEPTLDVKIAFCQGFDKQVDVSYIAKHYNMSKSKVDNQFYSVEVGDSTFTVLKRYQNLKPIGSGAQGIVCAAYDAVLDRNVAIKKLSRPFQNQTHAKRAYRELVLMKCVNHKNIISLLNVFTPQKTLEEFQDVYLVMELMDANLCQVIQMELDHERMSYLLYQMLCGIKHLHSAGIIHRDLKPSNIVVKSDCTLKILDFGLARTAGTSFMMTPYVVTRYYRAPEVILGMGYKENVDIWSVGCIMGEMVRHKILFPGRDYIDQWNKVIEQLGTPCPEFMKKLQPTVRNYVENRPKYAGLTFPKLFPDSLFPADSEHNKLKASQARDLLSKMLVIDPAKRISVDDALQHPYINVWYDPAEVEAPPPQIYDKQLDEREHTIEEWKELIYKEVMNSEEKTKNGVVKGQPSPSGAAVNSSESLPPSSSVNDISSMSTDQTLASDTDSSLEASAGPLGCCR
# Chain of Paired box protein Pax-8 (Q06710 whole entry): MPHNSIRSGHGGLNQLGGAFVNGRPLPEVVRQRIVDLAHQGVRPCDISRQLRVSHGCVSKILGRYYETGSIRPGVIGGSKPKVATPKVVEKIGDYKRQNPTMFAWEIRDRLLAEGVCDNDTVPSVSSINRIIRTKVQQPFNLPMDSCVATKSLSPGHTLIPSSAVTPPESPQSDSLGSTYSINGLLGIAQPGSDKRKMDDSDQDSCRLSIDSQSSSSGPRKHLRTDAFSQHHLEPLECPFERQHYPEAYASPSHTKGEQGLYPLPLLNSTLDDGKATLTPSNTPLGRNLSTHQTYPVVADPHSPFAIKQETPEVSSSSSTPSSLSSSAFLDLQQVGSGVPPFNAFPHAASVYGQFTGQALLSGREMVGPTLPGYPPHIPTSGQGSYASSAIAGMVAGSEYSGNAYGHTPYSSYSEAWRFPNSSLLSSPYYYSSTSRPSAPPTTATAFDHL
compound,measurement,setting,value
CCCCC(CC)CN1CN(CC(CC)CCCC)CC(C)(N)C1 (stereo not given) [HEXETIDINE],IC50,[1],36.4 µM (inactive)
same,IC50,[2],26.6 µM (inactive)
Cc1ccccc1-n1nc(C)c2cc(C(=O)N3CCOCC3)sc21,IC50,[3],> 93.1 µM (not active)
CC(C)N(C)C(=O)c1cccc(NC(=O)c2ccncc2)c1OCCCN(C)Cc1ccc(Oc2ccccc2)cc1,AC50,[4],0.386 µM (active)
same,IC50,[5],10.1 µM (inconclusive)
same,AC50,[6],0.381 µM (active)
Cc1ccc(CNC(=O)c2cc3c(=O)n4ccccc4nc3n(Cc3ccco3)c2=N)cc1,IC50,[7],17.3 µM (active)
Cc1cnc(NC(=O)c2cn(-c3ccccc3)nc2-c2cccnc2)s1,IC50,[8],> 74.4 µM (inactive)
CCOCCCNC(=O)c1ccc2c(c1)N=C(CC)c1cc(Br)ccc1S2,AC50,[9],0.3 µM (active)
same,EC50,[10],0.358 µM (active)
same,EC50,[11],0.455 µM (active)
same,AC50,[12],0.386 µM (active)
same,AC50,[13],15.3 µM (active)
same,EC50,[14],0.828 µM (inconclusive)
same,AC50,[15],1.16 µM (active)
same,EC50,[16],0.342 µM (active)
same,AC50,[17],1.35 µM (active)
same,AC50,[18],0.497 µM (active)
same,AC50,[19],1.22 µM (active)
same,AC50,[20],0.403 µM (active)
same,AC50,[21],41.8 µM (active)
same,AC50,[22],4.78 µM (active)
same,IC50,[23],> 80 µM (inactive)
same,AC50,[24],1.07 µM (active)
CC1=CC(C)(C)N2C(=O)/C(=N/c3ccc(O)cc3)c3cccc1c32,CC50,[25],9.38 µM (active)
same,EC50,[26],> 380 µM (inactive)
same,AC50,[27],> 380 µM (inactive)
same,IC50,[28],> 100 µM (active)
COc1ccc(O)c(N)c1,IC50,[29],1.53 µM (active)
same,IC50,[30],> 100 µM (active)
